In patent US11485751B2, “Apramycin derivatives” (WAYNE STATE UNIVERSITY, priority 2017, dated 2022):
≈ marks a conversion by molar mass, not a printed value.

How the values were obtained:
[1] = tested on: clinical isolates carrying AAC(3)-IV; experiment: MIC broth microdilution, AAC(3)-IV; type: cell-based; details: clinical isolates, IMM Univ. Zurich; AAC(3)-IV; read-out: MIC AAC(3)-IV
Procedure, shortened: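 MICs obtained by broth microdilution following CLSI M07-A10, tested against clinical isolates from the Institute of Medical Microbiology, Univ. Zurich; values in μg/ml.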

[2] = tested on: clinical isolates carrying APH(3′)-I; experiment: MIC broth microdilution, APH(3′)-I; type: cell-based; details: IMM Univ. Zurich
[3] = tested on: clinical isolates carrying APH(3′)-II; experiment: MIC broth microdilution, APH(3′)-II; type: cell-based; details: clinical isolates, IMM Univ. Zurich; APH(3′)-II; read-out: MIC APH(3′)-II
[4] = tested on: clinical isolates carrying APH(3′)-III; experiment: MIC broth microdilution, APH(3′)-III; type: cell-based; details: IMM Univ. Zurich
[5] = tested on: clinical isolates carrying APH(3′)-VI; experiment: MIC broth microdilution, APH(3′)-VI; type: cell-based; details: IMM Univ. Zurich
bacterial ribosomes = experiment: in-vitro translation assay, bacterial ribosomes; type: biochemical
Procedure, shortened: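 Inhibitory potency was determined as IC50 in in-vitro translation systems based on bacterial ribosomes, human chimeric (mitochondrial-type) ribosomes or rabbit reticulocyte (cytosolic) ribosomes.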

[6] = tested on: human mitochondrial ribosomes; experiment: in-vitro translation assay, human mitochondrial (human chimeric) ribosomes; type: biochemical
Procedure, shortened: (§1)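 Each ribosome preparation (bacterial, human chimeric as the mitochondrial model, rabbit reticulocyte as the cytosolic model) drives in-vitro translation with the test compound present. Inhibition of translation gives the IC50.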

[7] = tested on: human cytosolic ribosomes; experiment: in-vitro translation assay, human cytosolic ribosomes; type: biochemical
Procedure, shortened: as §1

[8] = tested on: AG212, Escherichia coli ATCC25922; experiment: MIC reference strain AG212; type: cell-based; details: Escherichia coli; reference strain ATCC25922; read-out: MIC AG212 E. coli
Procedure, shortened: (§2)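 MICs by broth microdilution following CLSI M07-A10.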

[9] = tested on: AG215, Klebsiella pneumonia; experiment: MIC reference strain AG215; type: cell-based; details: Klebsiella pneumoniae, reference strain; read-out: MIC AG215 K. pneumonia
Procedure, shortened: as §2

[10] = tested on: AG290, Enterobacter cloacae; experiment: MIC reference strain AG290; type: cell-based; details: Enterobacter cloacae; reference strain; read-out: MIC AG290 E. cloacae
Procedure, shortened: as §2

[11] = tested on: AG220, Pseudomonas aeruginosa ATCC27853; experiment: MIC reference strain AG220; type: cell-based; details: Pseudomonas aeruginosa, ATCC27853, reference strain ATCC27853; read-out: MIC AG220 P. aeruginosa
Procedure, shortened: as §2

[12] = tested on: AG225, Acinetobacter baumannii pittii; experiment: MIC reference strain AG225; type: cell-based; details: Acinetobacter baumannii, reference strain; read-out: MIC AG225 A. baumannii
Procedure, shortened: as §2

AG001 E. coli WT = experiment: Antibacterial activity, clinical isolate AG001; type: cell-based; parameters: unit not given here
Procedure, shortened: (§3)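 MICs determined by broth microdilution following CLSI M07-A10 (2015) against clinical isolates.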

AG055 E. coli WT = experiment: Antibacterial activity, clinical isolate AG055; type: cell-based; parameters: unit not given here
Procedure, shortened: as §3

AG003 E. coli AAC(3)-II = experiment: Antibacterial activity, clinical isolate AG003; type: cell-based
Procedure, shortened: as §3

AG173 E. coli AAC(3)-IV = experiment: Antibacterial activity, clinical isolate AG173; type: cell-based
Procedure, shortened: as §3

AG163 E. coli APH(3′)-I = experiment: Antibacterial activity, clinical isolate AG163; type: cell-based
Procedure, shortened: as §3

AG038 MRSA = experiment: Antibacterial activity, clinical isolate AG038; type: cell-based; parameters: unit not given here
Procedure, shortened: as §3

[13] = tested on: AG039 MRSA AAC(6′)-I ANT(4′)-I; experiment: Antibacterial activity, clinical isolate AG039; type: cell-based
Procedure, shortened: as §3

[14] = tested on: AG042 MRSA AAC(6′)-I ANT(4′)-I APH(2′); experiment: Antibacterial activity, clinical isolate AG042; type: cell-based; parameters: unit not given here
Procedure, shortened: as §3

AG031 P. aer. APH(3′)-II = experiment: Antibacterial activity, clinical isolate AG031; type: cell-based; parameters: unit not given here
Procedure, shortened: as §3

AG032 P. aer. APH(3′)-II = experiment: Antibacterial activity, clinical isolate AG032; type: cell-based; parameters: unit not given here
Procedure, shortened: as §3

[15] = tested on: AG033 P. aer. APH(3′)-II AAC(6′)-I; experiment: Antibacterial activity, clinical isolate AG033; type: cell-based; parameters: unit not given here
Procedure, shortened: as §3

[16] = tested on: Engineered E. coli pH430 WT; experiment: Activity, engineered E. coli pH430 WT; type: cell-based; details: wild type
Procedure, shortened: (§4)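 Read-out is the minimal inhibitory concentration, obtained in broth microdilution run according to CLSI guidelines (M07-A10).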

[17] = tested on: Engineered E. coli AG103 armA; experiment: Activity against G1405-methylated 16S-rRNA, E. coli AG103 armA; type: cell-based
Procedure, shortened: as §4

[18] = tested on: Engineered E. coli pH424 armA; experiment: Activity against G1405-methylated 16S-rRNA, E. coli pH424 armA; type: cell-based
Procedure, shortened: as §4

[19] = tested on: Engineered E. coli pH425 rmtB; experiment: Activity against G1405-methylated 16S-rRNA, E. coli pH425 rmtB; type: cell-based
Procedure, shortened: as §4

[20] = tested on: Engineered E. coli pH426 rmtC; experiment: Activity against G1405-methylated 16S-rRNA, E. coli pH426 rmtC; type: cell-based
Procedure, shortened: as §4

[21] = tested on: Engineered E. coli pH427 rmtF; experiment: Activity against G1405-methylated 16S-rRNA, E. coli pH427 rmtF; type: cell-based
Procedure, shortened: as §4

[22] = tested on: E. coli AG153 AAC(3)-II APH(3′)-II rmtB; experiment: Activity against G1405-methylated 16S-rRNA, clinical isolate AG153; type: cell-based
Procedure, shortened: as §4

[23] = tested on: K. pneum. AG269 AAC(3)-II AAC(6′)-I rmtB; experiment: Activity against G1405-methylated 16S-rRNA, clinical isolate AG269; type: cell-based
Procedure, shortened: as §4

[24] = tested on: Enterob. AG302 AAC(3)-II AAC(6′)-I rmtC; experiment: Activity against G1405-methylated 16S-rRNA, clinical isolate AG302; type: cell-based
Procedure, shortened: as §4

[25] = tested on: A baum. AG227 APH(3′)-I armA; experiment: Activity against G1405-methylated 16S-rRNA, clinical isolate AG227; type: cell-based
Procedure, shortened: as §4

[26] = tested on: Enterobacteriaceae, Pseudomonas, Acinetobacter, and Mycobacteria; experiment: Antibacterial potency, Tables 4+5 overall; type: cell-based; details: against Enterobacteriaceae, Mycobacteria (Tables 4+5)
Text: Minimal inhibitory concentrations (MIC) have been determined by broth microdilution assays (CLSI. Methods for Dilution Antimicrobial Susceptibility Tests for Bacteria That Grow Aerobically; Approved Standard—Tenth Edition. CLSI document M07-A10. Wayne, Pa.: Clinical and Laboratory Standards Institute; 2015.).

CNC1C(OC2OC(CO)C(N)C(O)C2O)OC2CC(N)C(OC3C(N)CC(N)C(O)C3OC3OC(CN)C(OCCN)C3O)OC2C1O [DC185, 5-O-β-[5-Amino-3-O-(2-aminoethyl)-5-deoxy-D-ribofuranosyl] apramycin]
MIC [1]: > 32 µg/mL | MIC [2]: 1 µg/mL (≈ 1.4 µM) | MIC [3]: 1 µg/mL (≈ 1.4 µM) | MIC [4]: 0.25 µg/mL (≈ 0.35 µM) | MIC [5]: 2 µg/mL (≈ 2.8 µM) | IC50 (bacterial ribosomes): 0.03 µM | IC50 [6]: 34 µM | IC50 [7]: 26 µM | MIC [8]: 2 µg/mL | MIC [9]: 0.5 to 1 µg/mL | MIC [10]: 1 µg/mL | MIC [11]: 1 to 2 µg/mL | MIC [12]: 2 µg/mL | Antibacterial activity AG001 E. coli WT (AG001 E. coli WT): 2 | Antibacterial activity AG055 E. coli WT (AG055 E. coli WT): 2 | Antibacterial activity AG003 E. coli AAC(3)-II (AG003 E. coli AAC(3)-II): 1-2 | Antibacterial activity AG173 E. coli AAC(3)-IV (AG173 E. coli AAC(3)-IV): 4 | Antibacterial activity AG163 E. coli APH(3′)-I (AG163 E. coli APH(3′)-I): 2 | Antibacterial activity AG038 MRSA (AG038 MRSA): 1 | Antibacterial activity AG039 MRSA AAC(6′)-I ANT(4′)-I [13]: 1 | Antibacterial activity AG042 MRSA AAC(6′)-I ANT(4′)-I APH(2′) [14]: 1 | Antibacterial activity AG031 P. aer. APH(3′)-II (AG031 P. aer. APH(3′)-II): 2 | Antibacterial activity AG032 P. aer. APH(3′)-II (AG032 P. aer. APH(3′)-II): 2 | Antibacterial activity AG033 P. aer. APH(3′)-II AAC(6′)-I [15]: 2 | Activity E. coli pH430 WT [16]: 1 | Activity E. coli AG103 armA [17]: 0.5-1 | Activity E. coli pH424 armA [18]: 2 | Activity E. coli pH425 rmtB [19]: 2 | Activity E. coli pH426 rmtC [20]: 2 | Activity E. coli pH427 rmtF [21]: 2 | Activity E. coli AG153 AAC(3)-II APH(3′)-II rmtB [22]: 4 | Activity K. pneum. AG269 AAC(3)-II AAC(6′)-I rmtB [23]: 1 | Activity Enterob. AG302 AAC(3)-II AAC(6′)-I rmtC [24]: 1 | Activity A baum. AG227 APH(3′)-I armA [25]: 2 | antibacterial potency [26]: increased antibacterial potency
